The text below walks through data of patent US8389677B2, “Antioxidant polypeptide and a process for isolation and purification of the same” (Adichunchanagiri Biotechnology and Cancer Research Institute, priority 2010, dated 2013).

Data set [1] relates to mice. As to conditions: at more than 0.1% dose; cited from earlier work.
For data set [2], the system named is hydroxyl radical. Put plainly: Deoxyribose method / Hydroxyl radical scavenging assay. The format is biochemical. As to conditions: concentration 400 μM. As for the experimental part: (§1) ATE containing 2 mg protein was loaded on to the Sephadex G-50 column (VT=240 ml, VO=80 ml) and eluted with 0.1M Tris HCl, pH −7.4 containing 0.1 M NaCl and flow rate was 1.7 ml/5 min, Fractions were monitored at 280 nm. Two peaks were obtained namely Peak I and Peak II. Peak II depicts the polypeptide of the present invention (Arishinin) as shown in FIG. 1 and the Gel filtration chromatography profile of Aqueous Turmeric Extract. Peak II was pooled, concentrated and dialyzed against double distilled water at 4° C. using 2 KDa cut off dialysis membrane for 74 hrs. […] The antioxidant activity was done by TBARS and Hydroxy radical scavenging assay compared to standard antioxidant like BHA, Curcumin and α-tocopherol as positive controls. Cell viability test by Tryphan blue exclusion method was done to test the toxicity of Arishinin.
(§2) The quantification of water-soluble antioxidant polypeptide Arishinin, isolated by the process described in Examples 1 to 4 (as depicted in Table 1 above) was determined by the following methods. Protein estimation was done by Bradford's method (Bradford, M. M., 1976, Analytical Biochem., […]) with an absorption maximum at 595 nm and results shown in Table 1. The antioxidant activity of Arishinin was evaluated by Thio Barbituric Acid Reactive Substance (TBARS) (Shimasaki, H., et al., 1984, Biochem. Biophys. Acta, 792:123-129) and Deoxyribose method/Hydroxyl radical scavenging assay (Halliwell, B., et al., 1981, Methods of Biochemical Sciences, 33:59-90) with absorption maximum at 535 nm by using BHA, alpha tocopherol and Curcumin as standard antioxidants.

Data set [3] has as its system lipid peroxidation. As to the kind of experiment: Thio Barbituric Acid Reactive Substance (TBARS) antioxidant assay. Conditions: concentration 400 μM. It counts as biochemical. As to the method:
as §1, §2

Regarding `Cc1cc(C(C)(C)C)c(O)c(C(C)(C)C)c1` [BHT, Butylated Hydroxy Toluene], in data set [1], the “carcinogenicity (fore-stomach tumour in mice)” value is “carcinogenic”.
Take `COc1ccc(O)c(C(C)(C)C)c1` [BHA, Butylated Hydroxyl Anisole]: the “carcinogenicity (fore-stomach tumour in mice)” value in data set [1] is “carcinogenic”. Also, the “INHIBITION (%) Hydroxyl radical” value in data set [2] came out at 80 ± 1%. Further, the “INHIBITION (%) TBARS” value in data set [3] is 84 ± 1.5%.
`COc1cc(/C=C/C(=O)CC(=O)/C=C/c2ccc(O)c(OC)c2)ccc1O` [Curcumin]: the “INHIBITION (%) Hydroxyl radical” value in data set [2] was found to be 68 ± 3%. Moreover, in data set [3], the “INHIBITION (%) TBARS” value turned out to be 72 ± 1.5%.
The matching figures for `Cc1c(C)c2c(c(C)c1O)CC[C@@](C)(CCC[C@H](C)CCC[C@H](C)CCCC(C)C)O2` [α-tocopherol]: 88 ± 2% and 92 ± 1%.
